# Paper PMC3485206, “Integrative Binding Sites within Intracellular Termini of TRPV1 Receptor” (PLoS ONE, 2012)
# Positions count from the first letter of the chain named. Numbers in names are those of the source. Entries after “also recorded” stand apart in the source; their conditions may differ.
# B1: K770A/R778A/R785A: triple alanine mutant of TRPV1-CT (712–838) thioredoxin fusion protein (protein, UniProt O35433 712-838, looked up, variant K770A R778A R785A)
# chain: FLKCMRKAFRSGKLLQVGFTPDGKDDYRWCFRVDEVNWTTWNTNVGIINEDPGNCEGVARTLSFSLASGRVSGANWKNFALVPLLRDASTRDRHATQQEEVQLKHYTGSLKPEDAEVFKDSMVPGEK
# modifications: thioredoxin fusion, His tag
# notes: triple alanine mutant of TRPV1-CT (712–838) thioredoxin fusion protein
# B2: K770A/R781A/R785A: triple alanine mutant of TRPV1-CT (712–838) thioredoxin fusion protein (protein, UniProt O35433 712-838, looked up, variant K770A R781A R785A)
# chain: B1 chain with A67R, R70A
# modifications: thioredoxin fusion, His tag
# notes: as for B1
# Tests used:
# [1] = Surface plasmon resonance, binding to PC/PIP2 liposomes on sensor chip; conditions: for Kd: SPR equilibrium binding, PC/PIP2 (20∶1) liposomes, 25°C, HBSS, read-out: equilibrium dissociation constant KD; for binding to PIP2 containing liposomes (in words): SPR, PC/PIP2 liposomes
# Description: All SPR measurements were performed at 25°C using a liposome-coated NLC chip in aProteOn XPR36 Protein Interaction Array System (Bio-rad, Hercules, CA, USA). […] Lipid solution (10 mg/ml) in HBSS was mixed with 8 µM oligonucleotide 5′-[…]-3′, modified at the 3′ end with cholesterol (Generi-Biotech, Hradec Kralove, Czech Republic), and the mixture was extruded using a LiposoFast Basic apparatus (Avestin Europe, Mannheim, Germany) with a polycarbonate membrane with a 100-nm pore diameter (Avestin Europe, Mannheim, Germany). The lipid/DNA ratio was 1200∶1. The vesicles were then incubated with 8 µM anti-sense oligonucleotide 5′-[…]-3′, modified at the 5′ end with biotin (Generi-Biotech, Hradec Kralove, Czech Republic), and washed by centrifugation (50,000 g) for 30 min at 4°C. The vesicles were diluted to a final concentration of 1 mg/ml in HBSS and immobilized on the streptavidin-coated NLC chip (Bio-rad, Hercules, CA, USA) surface at a flow rate of 25 µl/min for 10 min to give ∼800 −1500 resonance units (RU). All SPR measurements were carried out in HBSS at a flow rate of 30 µl/min for both the association and dissociation phase of the sensograms. For determining equilibrium binding, the association phases of five different concentrations of each protein were brought to near-equilibrium values (Req). Surfaces were typically regenerated with 50 µl of 1 M NaCl and 20 mM glycin buffer, pH 3.5. The sensograms were corrected for sensor background by interspot referencing (the sites within the 6×6 array which are not exposed to ligand immobilization but are exposed to analyte flow), and double referenced by subtraction of the analyte using a “blank” injection. Assuming a Langmuir-type binding between the protein (P) and protein binding sites (S) on vesicles (i.e. P + S ↔ PS), Req values were then plotted versus protein concentration (P0), and the KD value was determined by nonlinear least-squares analysis of the binding isotherm using the equation Req = Rmax/(1+KD/P0).
# CaM = system: CaM; parameters: method as in PMID 18755153; conditions: TRPV1-CT fusion protein mutants; cited from earlier work
# [2] = ELISA, influence of liposome composition on binding to immobilized TRPV1-CT; conditions: liposomes of different composition
# Description: The lipids L-α-phosphatidylinositol-4,5-bisphosphate (PIP2), 1,2-dimyristoyl-sn-glycero-3- Phosphatidylserine (PS), 1,2-dimyristoyl-sn-glycero-3-phosphocholine (PC) and 1,2-dimyristoyl-sn-glycero-3- Phosphatidylethanolamine (PE) were obtained from Avanti Polar Lipis, Inc. A stock solution of each lipid was prepared in chloroform, except for PIP2 stock solution, which was prepared in a chloroform:methanol (2∶1) mixture. Liposomes of the following compositions were prepared: PC, PC/PIP2 97/3%, PC/PIP2 90/10%, PC/PIP2/PS 70/10/20%, PC/PIP2/PS/PE 40/10/20/30%, PC/PIP2/PE 70/10/20%, PC/PIP2/PE 77/3/20%, PC/PE/PS 50/30/20% by mixing appropriate volumes of the stock solutions. After being dried under an N2 stream, lipid films were hydrated with 1× HBSS buffer containing 8 µM oligonucleotide 5′-[…]-3′, modified at the 3′ end with cholesterol (Generi-Biotech, Hradec Kralove, Czech Republic)- followed by extrusion 20 times through a polycarbonate membrane with a 100-nm pore diameter (Avestin Europe, Mannheim, Germany). Finally 8 µM complementary oligonucleotide Biotin conjugate 5′-[…]-3′ (Generi-Biotech, Hradec Kralove, Czech Republic) was added to the liposome mixture. A 20-min incubation was followed by centrifugation and washing steps to remove the unbound oligonucleotide-Biotin conjugate.
# 96-well micro titer plates were used. […] Absorbance was read at 490 nm using a micro plate reader.
# [3] = Control SPR with liposomes containing only phosphatidylcholine; type: binding; conditions: liposomes not containing PIP2
# Description: All SPR measurements were performed at 25°C using a liposome-coated NLC chip in aProteOn XPR36 Protein Interaction Array System (Bio-rad, Hercules, CA, USA). Liposomes (100 nm in diameter) were made from 1,2-dimyristoyl-sn-glycero-3-phosphocholine (PC) and L-α-phosphatidylinositol-4,5-bisphosphate (PIP2) (Avanti Lipids, Alabaster, AL, USA) at a molar ratio of 20∶1 (PC/PIP2). Lipid solution (10 mg/ml) in HBSS was mixed with 8 µM oligonucleotide 5′-[…]-3′, modified at the 3′ end with cholesterol (Generi-Biotech, Hradec Kralove, Czech Republic), and the mixture was extruded using a LiposoFast Basic apparatus (Avestin Europe, Mannheim, Germany) with a polycarbonate membrane with a 100-nm pore diameter (Avestin Europe, Mannheim, Germany). The lipid/DNA ratio was 1200∶1. The vesicles were then incubated with 8 µM anti-sense oligonucleotide 5′-[…]-3′, modified at the 5′ end with biotin (Generi-Biotech, Hradec Kralove, Czech Republic), and washed by centrifugation (50,000 g) for 30 min at 4°C. […] Assuming a Langmuir-type binding between the protein (P) and protein binding sites (S) on vesicles (i.e. P + S ↔ PS), Req values were then plotted versus protein concentration (P0), and the KD value was determined by nonlinear least-squares analysis of the binding isotherm using the equation Req = Rmax/(1+KD/P0).
# [4] = Control steady-state fluorescence anisotropy with NBD-PC; type: binding; conditions: NBD-PC 10 nM
# Description: Peptides were dissolved in 50 mM Tris-HCl (pH 7.5), 100 mM NaCl buffer and were used for measurements of fluorescence anisotropy. Steady-state fluorescence anisotropy measurements were performed in an ISS Photon Counting Steady-State Spectrofluorimeter (ISS PC1TM) at room temperature with a PIP2-Bodipy® FL C5, C6-PtdIns(4,5)P2 molecular probe (Invitrogen, cat. n. B22627, Figure S3A), hereafter denoted as PIP2-Bodipy and the control experiment was done with 16∶0-06∶0 NBD PC 1-palmitoyl-2-{6-[(7-nitro-2-1,3-benzoxadiazol-4-yl)amino]hexanoyl}-sn-glycero-3-phosphocholine in chloroform (NBD-PC), (Avanti Polar Lipids, Inc. Cat. n. 810130C, Figure S3B) The PIP2-Bodipy probe was diluted in deionized H2O. The final concentration of the fluorescently labeled probe in the measuring buffer in the cuvette was 10 nM and increasing amounts of peptides and fusion protein TRPV1 respectively were titrated into the cuvette. […] At each peptide concentration, steady-state fluorescence anisotropy was recorded. The fraction of TRPV1s regions or their mutants bound to fluorescent probe was determined from the anisotropy changes using Eq. (1), where FB is the fraction bound, rmin and rmax are the anisotropies of the free and bound PIP2-Bodipy with TRPV1-CT, pTRPV1 regions or its mutants, robs is the observed anisotropy, and Q is the ratio of the intensities of the free and bound protein (fmax/fmin). […]
# [5] = Steady state fluorescence anisotropy binding assay with PIP2-Bodipy; conditions: for Kd: PIP2-Bodipy 10 nM titrated with protein or peptide, room temperature, read-out: equilibrium dissociation constant KD
# Description: Peptides were dissolved in 50 mM Tris-HCl (pH 7.5), 100 mM NaCl buffer and were used for measurements of fluorescence anisotropy. Steady-state fluorescence anisotropy measurements were performed in an ISS Photon Counting Steady-State Spectrofluorimeter (ISS PC1TM) at room temperature with a PIP2-Bodipy® FL C5, C6-PtdIns(4,5)P2 molecular probe (Invitrogen, cat. n. B22627, Figure S3A), hereafter denoted as PIP2-Bodipy and the control experiment was done with 16∶0-06∶0 NBD PC 1-palmitoyl-2-{6-[(7-nitro-2-1,3-benzoxadiazol-4-yl)amino]hexanoyl}-sn-glycero-3-phosphocholine in chloroform (NBD-PC), (Avanti Polar Lipids, Inc. Cat. n. 810130C, Figure S3B) The PIP2-Bodipy probe was diluted in deionized H2O. The final concentration of the fluorescently labeled probe in the measuring buffer in the cuvette was 10 nM and increasing amounts of peptides and fusion protein TRPV1 respectively were titrated into the cuvette. PIP2-Bodipy excitation and emission wavelengths were set to 500 nm and 512 nm and for NBD – PC 460 nm and 534 nm respectively. At each peptide concentration, steady-state fluorescence anisotropy was recorded. The fraction of TRPV1s regions or their mutants bound to fluorescent probe was determined from the anisotropy changes using Eq. (1), where FB is the fraction bound, rmin and rmax are the anisotropies of the free and bound PIP2-Bodipy with TRPV1-CT, pTRPV1 regions or its mutants, robs is the observed anisotropy, and Q is the ratio of the intensities of the free and bound protein (fmax/fmin). All experiments were carried out in at least triplicate. [drawing 1] (1)
# The FB was plotted against the TRPV1 peptides and fusion proteins concentration respectively and fitted using Eq. (2) to determine the equilibrium dissociation constant (KD). Non-linear data fitting was performed using the package SigmaPlot 2000 (6.1) SPSS Inc. P1 is the concentration of PIP2-Bodipy and P2 is the concentration of TRPV1 fusion protein or TRPPV1 synthetic peptides. [drawing 2] (2)
Molecule,Kd [1] [µM],binding to PIP2 containing liposomes (in words) [1],also measured
K770A/R785A: double alanine mutant of TRPV1-CT (712–838) thioredoxin fusion protein,5.8 ± 0.8,suppressed this interaction partially,–
R771A/R778A: double alanine mutant of TRPV1-CT (712–838) thioredoxin fusion protein,> 150,total loss of binding affinity; also recorded: avoided PIP2 binding totally,–
R771A/R781A: double alanine mutant of TRPV1-CT (712–838) thioredoxin fusion protein,33.5 ± 11.7,suppressed this interaction partially,–
R771A: single alanine mutant of TRPV1-CT (712–838) thioredoxin fusion protein,–,preserves its binding ability to PIP2,CaM binding (in words) (CaM): significantly inhibits the CaM binding
R778A: single alanine mutant of TRPV1-CT (712–838) thioredoxin fusion protein,> 150,total loss of binding affinity; also recorded: inhibited the PIP2 binding,CaM binding (in words) (CaM): did not prevent CaM binding
R781A: single alanine mutant of TRPV1-CT (712–838) thioredoxin fusion protein,9.1 ± 3.8,–,–
TRPV1-CT: rat TRPV1 C-tail amino acids 712–838 expressed in E. coli as fusion protein with thioredoxin and 6× His tags,3 ± 0.4,–,selectivity for PIP2 over other lipids (in words) [2]: modest selectivity for PIP2 over other used lipids; interaction with liposomes containing only PC (in words) [3]: just a weak interaction was detected; interaction with NBD PC (in words) [4]: no interaction; Kd ([5]; listed as WT TRPV1-CT): 3.5 ± 0.9 µM; Kd [5]: 3.48 µM; SPR binding response ([1]; protein washed over PC/PIP2 liposome chip after regeneration step): approx. 1000 RU
thioredoxin: fusion tag protein titrated alone as control [reference compound],–,–,binding to PIP2-Bodipy (in words) ([5]; PIP2-Bodipy 10 nM): no thioredoxin–PIP2 binding
B1,> 150,total loss of binding affinity; also recorded: avoided PIP2 binding totally,–
B2,3.6 ± 0.5,–,–
